The record followed here is ChEMBL document CHEMBL5506049, “Discovery of Novel Small-Molecule-Based Potential PD-L1/EGFR Dual Inhibitors with High Druggability for Glioblastoma Immunotherapy” (J Med Chem, 2024).

Data set [1] concerns U-87 MG. Put plainly: Induction of cell cycle arrest in human U-87 MG cells assessed as accumulation of cells at G0/G1 phase at 0.5 uM incubated for 48 hrs by flow cytometry (reference value: 60.51%). The class given is functional, U-87MG ATCC.
Data set [2] has as its system U-87 MG. Put plainly: Induction of cell cycle arrest in human U-87 MG cells assessed as decrease in accumulation of cells at S phase at 1 uM incubated for 48 hrs by flow cytometry (reference value: 30.36%). Also noted: scale not given: the % may be the effect or the level left. The class given is functional, U-87MG ATCC.
The test system of data set [3] is U-87 MG. Briefly: Induction of cell cycle arrest in human U-87 MG cells assessed as decrease in accumulation of cells at S phase at 2 uM incubated for 48 hrs by flow cytometry (reference value: 30.36%). The class given is functional, U-87MG ATCC. Also noted: scale not given: the % may be the effect or the level left.
Data set [4] addresses Programmed cell death 1 ligand 1 (Mus musculus) (UniProt Q9EP73). Briefly: (§1) Binding affinity to recombinant mouse His-tagged PD-L1 expressed in HEK293 cells by SPR analysis. Background: Surface plasmon resonance follows binding to a sensor surface in real time, without labels.
For data set [5], the target named is Programmed cell death 1 ligand 1 (Mus musculus, UniProt Q9EP73). The description is as §1.
The nature of data set [6]: Half life in Sprague-Dawley rat at 4 mg/kg, iv measured upto 72 hrs by (LC-MS)/MS analysis. In kind it is ADME, organism-based. Conditions: in vivo.
Data set [7] in a line: Tmax in Sprague-Dawley rat at 4 mg/kg, iv measured upto 72 hrs by (LC-MS)/MS analysis. The class given is ADME, organism-based. The settings on record: in vivo.
Data set [8] in a line: Clearance in Sprague-Dawley rat at 4 mg/kg, iv measured upto 72 hrs by (LC-MS)/MS analysis. In kind it is ADME, organism-based. The settings on record: in vivo.
Data set [9] can be described thus: Oral bioavailability in Sprague-Dawley rat at 20 mg/kg measured upto 72 hrs by (LC-MS)/MS analysis. Conditions: in vivo. The class given is ADME, organism-based.
Data set [10] is described as follows: Ratio of brain to plasma concentration in Sprague-Dawley rat at 5 mg/kg, iv measured after 20 mins. In kind it is ADME, organism-based.
A short description of data set [11]: In vivo antitumor activity against […] GL261 cells xenografted in C57BL/6 mouse assessed as decrease in tumor weight at 100 mg/kg, IG treated for 21 days relative to control. In kind it is functional. Also noted: scale not given: the % may be the effect or the level left. Conditions: time 21 day. (In general: Xenograft models place foreign cells or tissue in a host animal.)

Data set [12] can be described thus: In vivo antitumor activity against […] GL261 cells xenografted in C57BL/6 mouse assessed as decrease in tumor volume at 100 mg/kg, IG treated for 21 days relative to control. In kind it is functional. On the set-up: scale not given: the % may be the effect or the level left. Conditions: time 21 day.
Data set [13] in a line: In vivo antitumor activity against […] GL261 cells xenografted in C57BL/6 mouse assessed as tumor growth inhibition (tumor weight decrease) at 50 mg/kg, IG treated for 21 days relative to control. In kind it is functional. Conditions: GL261, po, 504 h, time 21 day, read-out: TGI.
The nature of data set [14]: Toxicity in C57BL/6 mouse xenografted with […] GL261 cells assessed as cell necrosis in lung at 100 mg/kg, IG treated for 21 days by hematoxylin-eosin staining based microscopy assay. The class given is organism-based. The settings on record: in vivo, po, 504 h, time 21 day.
The subject of data set [15] is U-87 MG. Briefly: In vitro immunoregulatory effect in IFN-gamma stimulated human U-87 MG cells co-cultured with PHA-P stimulated with human Jurkat T cell assessed as cytotoxicity by measuring cell viability incubated for 48 hrs by CCK-8 assay relative to control. The class given is functional, cell-based. Conditions: U-87MG ATCC, dose 0.0625-0.5 µM.
The subject of the next data set is U-251. Put plainly: cells. The settings on record: Homo sapiens, U-251, 72 h.

Programmed cell death 1 ligand 1 (Mus musculus), sequence (Q9EP73 whole entry): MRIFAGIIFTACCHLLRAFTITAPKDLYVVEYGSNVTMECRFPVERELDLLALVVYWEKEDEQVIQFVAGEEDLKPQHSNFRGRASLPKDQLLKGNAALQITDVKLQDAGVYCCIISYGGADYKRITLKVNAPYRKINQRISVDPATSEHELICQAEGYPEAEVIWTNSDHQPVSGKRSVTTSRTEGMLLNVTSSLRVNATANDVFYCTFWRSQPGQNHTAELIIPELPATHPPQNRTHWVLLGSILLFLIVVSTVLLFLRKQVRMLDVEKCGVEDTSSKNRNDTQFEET
Programmed cell death 1 ligand 1, sequence (Q9EP73 whole entry): as above
Description for U-251: Antiproliferative activity against human U-251 cells incubated for 72 hrs by MTT assay

Broadly, the Kd is the equilibrium constant for the complex coming apart. In general, half-life refers to the time in which the quantity being followed falls by half. In general, Tmax refers to the time at which the peak concentration occurs. A word on the clearance: it is the rate of elimination divided by the concentration. Broadly, the bioavailability is dose-corrected exposure relative to a reference, in per cent. In general, IC50 refers to the concentration needed to halve the response being measured. As for `COc1cc2ncnc(Nc3cccc(Cl)c3F)c2cc1OCCCCNCc1c(OC)cc(OCc2cccc(-c3ccccc3)c2C)cc1OC`, the Activity with U-87 MG [1] is 63.57%; in the data set on U-87 MG [2], 22.89%; in the data set on U-87 MG [3] it was 16.72%; in data set [4], “Dose-Dependent Effect”; in data set [11], 92%; in [12] it was 89.7%. Also, the Activity entry in data set [14] is “Non-Toxic”; in the data set on U-87 MG [15], “Dose-Dependent Effect”. Further, in data set [5], the equilibrium dissociation constant (Kd) was 0.52 µM. Besides, in data set [6], the half-life was 6.8 h. For the same molecule, the Tmax in data set [7] is 2.4 min. Besides, in data set [8], the clearance was 1.5 L/h/kg. Besides, the bioavailability in data set [9] came to 22.2%. The BPR in data set [10] is 10%. In data set [13], the inhibition in vivo at 50 mg/kg was 61.4%. This molecule also returned an IC50 with U-251 of 1.02 µM.
